Reference: patent publication EP4745137A1 (Gluetacs Therapeutics (Shanghai) Co., Ltd., priority 2023, dated 2025)

Assays:
Format in all cases: cell-based
Settings in all cases: 24 hours of compound treatment
[1] = biological target: T1, WEE1 (Homo sapiens, UniProt P30291+Q96SW2); experiment: Western-blot assay of substrate protein degradation in hPBMCs, WEE1
T1 construct: endogenous in cells; host or cells: hPBMCs (Milecell Biotechnologies)
Description: (§1) After 24 hours of compounds treatment, cells were harvested and lysed in RIPA protein lysate containing protease inhibitors on ice for 30 min, followed by centrifugation. The supernatant was aspirated as the extracted total cell protein. The protein concentration of the supernatant was determined using the conventional BCA (Bicinchoninic Acid) assay. • (2) To the collected supernatant, 5X SDS sample loading buffer was added, followed by denaturation at 95°C for 5 minutes. The denatured samples were then separated by SDS-PAGE electrophoresis on a polyacrylamide gel, transferred onto a nitrocellulose membrane (0.45 µm NC membrane), blocked with blocking buffer at room temperature for 1 hour, and subjected to antibody incubation and development procedures according to the antibody manufacturer's instructions (Cell Signaling Technology Company). […]
(§2) Target protein remaining (%) refers to the percentage of target protein remaining in cells after treatment with protein degrader compounds.
(§3) Calculation method for target protein remaining (%): Use ImageJ software to measure grayscale values of Western blot bands from drug (protein degrader)-treated samples. The grayscale value of drug-treated bands is divided by that of internal control protein bands, and the resulting quotient is normalized to obtain the relative percentage of remaining target protein after protein degrader treatment. Target protein degradation rate(%) = 1−target protein remaining(%). [formula]

[2] = biological target: T2, IKZF1 (Homo sapiens, UniProt Q13422+Q96SW2); experiment: Western-blot assay of substrate protein degradation in hPBMCs, IKZF1
T2 construct: endogenous in cells; host or cells: hPBMCs (Milecell Biotechnologies)
Description: as §1, §2, §3

[3] = biological target: T3, IKZF2 (Homo sapiens, UniProt Q96SW2+Q9UKS7); experiment: Western-blot assay of substrate protein degradation in hPBMCs, IKZF2
T3 construct: endogenous in cells; host or cells: hPBMCs (Milecell Biotechnologies)
Description: as §1, §2, §3

[4] = biological target: T4, IKZF3 (Homo sapiens, UniProt Q96SW2+Q9UKT9); experiment: Western-blot assay of substrate protein degradation in hPBMCs, IKZF3
T4 construct: endogenous in cells; host or cells: hPBMCs (Milecell Biotechnologies)
Description: as §1, §2, §3

[5] = biological target: T5, CK1α (Homo sapiens, UniProt P48729+Q96SW2); experiment: Western-blot assay of substrate protein degradation in hPBMCs, CK1α
T5 construct: endogenous in cells; host or cells: hPBMCs (Milecell Biotechnologies)
Description: as §1, §2, §3

[6] = biological target: T6, GSPT1 (Homo sapiens, UniProt P15170+Q96SW2); experiment: Western-blot assay of substrate protein degradation in hPBMCs, GSPT1
T6 construct: endogenous in cells; host or cells: hPBMCs (Milecell Biotechnologies)
Description: as §1, §2, §3

[7] = 50 nM and 500 nM tested (concentration behind the class not stated)
[8] = compounds tested at 50 nM and 500 nM (concentration of the table not stated)

T4 sequence (Q9UKT9 whole entry): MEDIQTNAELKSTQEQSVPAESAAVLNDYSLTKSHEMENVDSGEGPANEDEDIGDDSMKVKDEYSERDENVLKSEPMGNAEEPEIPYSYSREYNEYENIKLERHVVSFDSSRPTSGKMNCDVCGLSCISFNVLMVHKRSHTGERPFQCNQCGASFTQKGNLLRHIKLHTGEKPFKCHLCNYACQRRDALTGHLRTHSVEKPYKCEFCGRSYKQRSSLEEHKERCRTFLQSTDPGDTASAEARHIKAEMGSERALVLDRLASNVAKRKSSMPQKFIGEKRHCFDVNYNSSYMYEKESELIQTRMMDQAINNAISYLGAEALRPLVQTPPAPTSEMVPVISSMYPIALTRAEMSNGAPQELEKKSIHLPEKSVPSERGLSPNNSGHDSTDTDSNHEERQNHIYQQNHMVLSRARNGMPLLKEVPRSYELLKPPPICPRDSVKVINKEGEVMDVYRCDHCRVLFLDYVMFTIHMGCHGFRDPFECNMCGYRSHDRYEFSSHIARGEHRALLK
T4 sequence (Q96SW2 whole entry): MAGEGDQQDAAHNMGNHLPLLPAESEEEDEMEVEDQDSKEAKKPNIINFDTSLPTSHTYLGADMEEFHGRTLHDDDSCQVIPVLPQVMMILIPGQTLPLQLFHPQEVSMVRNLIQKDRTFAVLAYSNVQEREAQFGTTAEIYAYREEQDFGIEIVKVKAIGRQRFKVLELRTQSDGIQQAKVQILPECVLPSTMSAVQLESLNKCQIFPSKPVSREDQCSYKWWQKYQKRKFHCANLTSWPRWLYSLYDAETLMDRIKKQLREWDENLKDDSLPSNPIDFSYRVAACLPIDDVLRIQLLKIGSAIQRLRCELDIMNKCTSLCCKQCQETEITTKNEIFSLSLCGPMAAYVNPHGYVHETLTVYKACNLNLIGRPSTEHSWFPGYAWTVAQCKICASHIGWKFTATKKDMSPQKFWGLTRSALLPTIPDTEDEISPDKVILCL
T4 sequence (Q16531 whole entry partner): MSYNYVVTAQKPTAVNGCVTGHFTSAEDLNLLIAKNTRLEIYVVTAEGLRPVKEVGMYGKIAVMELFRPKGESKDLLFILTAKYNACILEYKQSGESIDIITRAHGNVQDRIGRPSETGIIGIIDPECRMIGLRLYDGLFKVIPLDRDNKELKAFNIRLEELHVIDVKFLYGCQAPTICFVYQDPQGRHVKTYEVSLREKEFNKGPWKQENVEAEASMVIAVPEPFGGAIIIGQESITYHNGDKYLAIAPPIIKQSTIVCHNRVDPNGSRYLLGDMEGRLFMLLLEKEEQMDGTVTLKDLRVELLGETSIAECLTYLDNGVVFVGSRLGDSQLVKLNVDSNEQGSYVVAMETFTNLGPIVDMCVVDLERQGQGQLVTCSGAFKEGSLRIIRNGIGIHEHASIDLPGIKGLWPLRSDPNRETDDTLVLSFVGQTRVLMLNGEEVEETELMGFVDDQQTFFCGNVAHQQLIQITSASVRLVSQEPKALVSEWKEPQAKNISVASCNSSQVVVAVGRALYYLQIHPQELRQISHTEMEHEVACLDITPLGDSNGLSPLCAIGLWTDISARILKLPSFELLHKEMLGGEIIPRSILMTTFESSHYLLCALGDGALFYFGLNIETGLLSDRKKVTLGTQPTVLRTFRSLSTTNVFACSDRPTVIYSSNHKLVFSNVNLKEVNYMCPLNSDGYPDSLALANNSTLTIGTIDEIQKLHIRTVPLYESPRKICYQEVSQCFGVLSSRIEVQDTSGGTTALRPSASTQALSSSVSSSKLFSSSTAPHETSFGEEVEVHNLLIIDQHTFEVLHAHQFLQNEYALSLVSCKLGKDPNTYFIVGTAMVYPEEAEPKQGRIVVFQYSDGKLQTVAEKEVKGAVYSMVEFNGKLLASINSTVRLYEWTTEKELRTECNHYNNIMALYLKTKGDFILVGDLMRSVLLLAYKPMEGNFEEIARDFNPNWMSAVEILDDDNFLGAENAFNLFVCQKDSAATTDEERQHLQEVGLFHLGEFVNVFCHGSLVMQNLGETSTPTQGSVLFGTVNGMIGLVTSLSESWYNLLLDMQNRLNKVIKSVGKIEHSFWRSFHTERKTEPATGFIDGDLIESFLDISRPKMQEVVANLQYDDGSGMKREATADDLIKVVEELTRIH
T6 sequence (P15170 whole entry): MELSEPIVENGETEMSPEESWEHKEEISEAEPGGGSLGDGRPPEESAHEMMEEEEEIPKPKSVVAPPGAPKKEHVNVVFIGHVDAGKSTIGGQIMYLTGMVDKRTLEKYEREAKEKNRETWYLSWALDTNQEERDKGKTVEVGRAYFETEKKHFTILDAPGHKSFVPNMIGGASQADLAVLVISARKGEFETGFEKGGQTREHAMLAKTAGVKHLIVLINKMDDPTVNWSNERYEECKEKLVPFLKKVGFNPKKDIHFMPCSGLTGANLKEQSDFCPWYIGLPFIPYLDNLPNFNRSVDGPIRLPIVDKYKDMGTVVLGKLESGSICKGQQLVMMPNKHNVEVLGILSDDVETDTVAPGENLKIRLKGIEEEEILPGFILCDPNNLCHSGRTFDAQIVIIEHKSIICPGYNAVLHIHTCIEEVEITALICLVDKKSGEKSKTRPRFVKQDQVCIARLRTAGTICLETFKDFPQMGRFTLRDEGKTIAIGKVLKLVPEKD
T6 sequence (Q96SW2 whole entry): as the sequence (Q96SW2 whole entry) above
T6 sequence (Q16531 whole entry partner): as the sequence (Q16531 whole entry partner) above
T5 sequence (P48729 whole entry): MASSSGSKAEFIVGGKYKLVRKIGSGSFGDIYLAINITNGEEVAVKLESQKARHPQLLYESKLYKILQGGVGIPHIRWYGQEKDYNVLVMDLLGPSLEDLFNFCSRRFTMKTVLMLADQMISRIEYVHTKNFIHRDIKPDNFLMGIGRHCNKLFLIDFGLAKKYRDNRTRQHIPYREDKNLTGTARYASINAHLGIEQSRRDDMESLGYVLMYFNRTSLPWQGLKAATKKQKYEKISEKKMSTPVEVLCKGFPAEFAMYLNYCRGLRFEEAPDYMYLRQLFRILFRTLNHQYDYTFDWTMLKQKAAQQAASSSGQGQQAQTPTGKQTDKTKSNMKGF
T5 sequence (Q96SW2 whole entry): as the sequence (Q96SW2 whole entry) above
T5 sequence (Q16531 whole entry partner): as the sequence (Q16531 whole entry partner) above
T1 sequence (P30291 whole entry): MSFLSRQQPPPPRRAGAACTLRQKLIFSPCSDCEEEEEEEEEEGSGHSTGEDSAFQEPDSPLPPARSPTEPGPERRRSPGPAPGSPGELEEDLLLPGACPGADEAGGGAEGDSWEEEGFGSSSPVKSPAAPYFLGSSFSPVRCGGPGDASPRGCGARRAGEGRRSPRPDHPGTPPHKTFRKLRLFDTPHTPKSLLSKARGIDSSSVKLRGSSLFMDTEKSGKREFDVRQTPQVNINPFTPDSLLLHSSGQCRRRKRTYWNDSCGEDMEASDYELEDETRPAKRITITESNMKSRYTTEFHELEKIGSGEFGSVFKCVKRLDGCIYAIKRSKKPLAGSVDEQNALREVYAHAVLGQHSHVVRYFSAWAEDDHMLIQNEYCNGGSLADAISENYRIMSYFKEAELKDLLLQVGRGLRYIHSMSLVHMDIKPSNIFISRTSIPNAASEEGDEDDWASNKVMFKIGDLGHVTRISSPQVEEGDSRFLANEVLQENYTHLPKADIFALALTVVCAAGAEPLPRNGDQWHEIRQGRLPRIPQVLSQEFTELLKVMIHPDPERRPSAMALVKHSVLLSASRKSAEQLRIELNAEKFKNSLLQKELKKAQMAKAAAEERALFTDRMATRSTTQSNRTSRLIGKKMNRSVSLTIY
T1 sequence (Q96SW2 whole entry): as the sequence (Q96SW2 whole entry) above
T1 sequence (Q16531 whole entry partner): as the sequence (Q16531 whole entry partner) above
T3 sequence (Q9UKS7 whole entry): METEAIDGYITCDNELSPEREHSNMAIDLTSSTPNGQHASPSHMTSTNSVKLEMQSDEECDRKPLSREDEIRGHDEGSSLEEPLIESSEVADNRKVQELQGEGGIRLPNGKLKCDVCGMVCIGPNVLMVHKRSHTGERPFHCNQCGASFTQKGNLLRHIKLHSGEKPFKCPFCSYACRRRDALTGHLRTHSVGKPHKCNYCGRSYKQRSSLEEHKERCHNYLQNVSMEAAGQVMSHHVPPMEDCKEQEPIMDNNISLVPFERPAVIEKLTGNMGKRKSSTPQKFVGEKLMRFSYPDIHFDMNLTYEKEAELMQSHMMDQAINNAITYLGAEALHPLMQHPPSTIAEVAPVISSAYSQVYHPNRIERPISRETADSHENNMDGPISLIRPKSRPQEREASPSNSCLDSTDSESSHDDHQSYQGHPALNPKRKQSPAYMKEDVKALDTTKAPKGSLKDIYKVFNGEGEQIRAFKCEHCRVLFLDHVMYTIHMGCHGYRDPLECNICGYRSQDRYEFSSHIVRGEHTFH
T3 sequence (Q96SW2 whole entry): as the sequence (Q96SW2 whole entry) above
T3 sequence (Q16531 whole entry partner): as the sequence (Q16531 whole entry partner) above

SMILES | Weel substrate protein remaining % [1, 7] | IKZF 1 substrate protein remaining % [2, 7] | IKZF2 substrate protein remaining % [3, 7] | IKZF3 substrate protein remaining % [4, 7] | CK1a substrate protein remaining % [5, 7] | GSPT1 substrate protein remaining % [6, 7] | Weel substrate protein remaining % [1, 8] | IKZF 1 substrate protein remaining % [2, 8] | IKZF2 substrate protein remaining % [3, 8] | IKZF3 substrate protein remaining % [4, 8] | CK1a substrate protein remaining % [5, 8] | GSPT1 substrate protein remaining % [6, 8]
O=C1CCC(N2C(=O)c3ccc(CN4CCC(c5cccs5)CC4)cc3C2=O)C(=O)N1 (stereo not drawn) [GT-06224, 2-(2,6-dioxopiperidin-3-yl)-5-((4-(thiophen-2-yl)piperidin-1-yl)methyl)isoindoline-1,3-dione] | A (0% ≤ substrate protein remaining % ≤ 80%) | A (0% ≤ substrate protein remaining % ≤ 80%) | B (80%< substrate protein remaining %≤ 100%) | A (0% ≤ substrate protein remaining % ≤ 80%) | A (0% ≤ substrate protein remaining % ≤ 80%) | A (0% ≤ substrate protein remaining % ≤ 80%) |  |  |  |  |  | 
O=C1CCC(N2C(=O)c3ccc(CN4CCC(N5CCCc6cc(F)ccc65)CC4)cc3C2=O)C(=O)N1 (stereo not drawn) [GT-06234, 2-(2,6-dioxopiperidin-3-yl)-5-((4-(6-fluoro-3,4-dihydroquinolin-1(2H)-yl)piperidin-1-yl)methyl)isoindoline-1,3-dione] |  |  |  |  |  |  | B (80%< substrate protein remaining %≤ 100%) | B (80%< substrate protein remaining %≤ 100%) | B (80%< substrate protein remaining %≤ 100%) | B (80%< substrate protein remaining %≤ 100%) | B (80%< substrate protein remaining %≤ 100%) | A (0% ≤ substrate protein remaining % ≤ 80%)
O=C1CCC(N2C(=O)c3ccc(CN4CCC(N5CCOc6cc(F)ccc65)CC4)cc3C2=O)C(=O)N1 (stereo not drawn) [GT-06235, 2-(2,6-dioxopiperidin-3-yl)-5-((4-(7-fluoro-2,3-dihydro-4H-benzo[b][1,4]oxazin-4-yl)piperidin-1-yl)methyl)isoindoline-1,3-dione] |  |  |  |  |  |  | B (80%< substrate protein remaining %≤ 100%) | B (80%< substrate protein remaining %≤ 100%) | B (80%< substrate protein remaining %≤ 100%) | B (80%< substrate protein remaining %≤ 100%) | B (80%< substrate protein remaining %≤ 100%) | A (0% ≤ substrate protein remaining % ≤ 80%)
O=C1CCC(N2C(=O)c3ccc(CN4CCC(N5C(=O)COc6cc(F)ccc65)CC4)cc3C2=O)C(=O)N1 (stereo not drawn) [GT-06236, 2-(2,6-dioxopiperidin-3-yl)-5-((4-(7-fluoro-3-oxo-2,3-dihydro-4H-benzo[b][1,4]oxazin-4-yl)piperidin-1-yl)methyl)isoindoline-1,3-dione] |  |  |  |  |  |  | B (80%< substrate protein remaining %≤ 100%) | B (80%< substrate protein remaining %≤ 100%) | A (0% ≤ substrate protein remaining % ≤ 80%) | B (80%< substrate protein remaining %≤ 100%) | B (80%< substrate protein remaining %≤ 100%) | A (0% ≤ substrate protein remaining % ≤ 80%)
O=C1CCC(N2C(=O)c3ccc(CN4CCC(C5CCOc6cc(F)ccc65)CC4)cc3C2=O)C(=O)N1 (stereo not drawn) [GT-06237, 2-(2,6-dioxopiperidin-3-yl)-5-((4-(7-fluorochroman-4-yl)piperidin-1-yl)methyl)isoindoline-1,3-dione] |  |  |  |  |  |  | B (80%< substrate protein remaining %≤ 100%) | B (80%< substrate protein remaining %≤ 100%) | B (80%< substrate protein remaining %≤ 100%) | B (80%< substrate protein remaining %≤ 100%) | B (80%< substrate protein remaining %≤ 100%) | A (0% ≤ substrate protein remaining % ≤ 80%)
Cc1cscc1N1CCN(Cc2ccc3c(c2)C(=O)N(C2CCC(=O)NC2=O)C3=O)CC1 (stereo not drawn) [GT-06260, 2-(2,6-dioxopiperidin-3-yl)-5-((4-(4-methylthiophen-3-yl)piperazin-1-yl)methyl)isoindoline-1,3-dione] | B (80%< substrate protein remaining %≤ 100%) | B (80%< substrate protein remaining %≤ 100%) | B (80%< substrate protein remaining %≤ 100%) | B (80%< substrate protein remaining %≤ 100%) | B (80%< substrate protein remaining %≤ 100%) | A (0% ≤ substrate protein remaining % ≤ 80%) |  |  |  |  |  | 
O=C1CCC(N2C(=O)c3ccc(CN4CC=C(c5ccsc5)CC4)cc3C2=O)C(=O)N1 (stereo not drawn) [GT-06261, 2-(2,6-dioxopiperidin-3-yl)-5-((4-(thiophen-3-yl)-3,6-dihydropyridin-1(2H)-yl)methyl)isoindoline-1,3-dione] | A (0% ≤ substrate protein remaining % ≤ 80%) | A (0% ≤ substrate protein remaining % ≤ 80%) | A (0% ≤ substrate protein remaining % ≤ 80%) | A (0% ≤ substrate protein remaining % ≤ 80%) | A (0% ≤ substrate protein remaining % ≤ 80%) | A (0% ≤ substrate protein remaining % ≤ 80%) |  |  |  |  |  | 
Cc1ccc(C2CCN(Cc3ccc4c(c3)C(=O)N(C3CCC(=O)NC3=O)C4=O)CC2)s1 (stereo not drawn) [GT-06262, 2-(2,6-dioxopiperidin-3-yl)-5-((4-(5-methylthiophen-2-yl)piperidin-1-yl)methyl)isoindoline-1,3-dione] | B (80%< substrate protein remaining %≤ 100%) | B (80%< substrate protein remaining %≤ 100%) | A (0% ≤ substrate protein remaining % ≤ 80%) | B (80%< substrate protein remaining %≤ 100%) | A (0% ≤ substrate protein remaining % ≤ 80%) | A (0% ≤ substrate protein remaining % ≤ 80%) |  |  |  |  |  | 
O=C1CCC(N2C(=O)c3ccc(CN4CCC(c5cccc6c(F)cccc56)CC4)cc3C2=O)C(=O)N1 (stereo not drawn) [GT-06263, 2-(2,6-dioxopiperidin-3-yl)-5-((4-(5-fluoronaphthalen-1-yl)piperidin-1-yl)methyl)isoindoline-1,3-dione] |  |  |  |  |  |  | B (80%< substrate protein remaining %≤ 100%) | B (80%< substrate protein remaining %≤ 100%) | B (80%< substrate protein remaining %≤ 100%) | A (0% ≤ substrate protein remaining % ≤ 80%) | A (0% ≤ substrate protein remaining % ≤ 80%) | A (0% ≤ substrate protein remaining % ≤ 80%)
O=C1CCC(N2C(=O)c3ccc(CN4CC=C(c5cccc6c(F)cccc56)CC4)cc3C2=O)C(=O)N1 (stereo not drawn) [GT-06264, 2-(2,6-dioxopiperidin-3-yl)-5-((4-(5-fluoronaphthalen-1-yl)-3,6-dihydropyridin-1(2H)-yl)methyl)isoindoline-1,3-dione] |  |  |  |  |  |  | A (0% ≤ substrate protein remaining % ≤ 80%) | A (0% ≤ substrate protein remaining % ≤ 80%) | A (0% ≤ substrate protein remaining % ≤ 80%) | A (0% ≤ substrate protein remaining % ≤ 80%) | A (0% ≤ substrate protein remaining % ≤ 80%) | A (0% ≤ substrate protein remaining % ≤ 80%)
O=C1CCC(N2C(=O)c3ccc(CN4CCC(c5ccnc6cc(F)ccc56)CC4)cc3C2=O)C(=O)N1 (stereo not drawn) [GT-06265, 2-(2,6-dioxopiperidin-3-yl)-5-((4-(7-fluoroquinolin-4-yl)piperidin-1-yl)methyl)isoindoline-1,3-dione] |  |  |  |  |  |  | B (80%< substrate protein remaining %≤ 100%) | B (80%< substrate protein remaining %≤ 100%) | A (0% ≤ substrate protein remaining % ≤ 80%) | B (80%< substrate protein remaining %≤ 100%) | B (80%< substrate protein remaining %≤ 100%) | B (80%< substrate protein remaining %≤ 100%)
O=C1CCC(N2C(=O)c3ccc(CN4CCC(c5cccc6cnccc56)CC4)cc3C2=O)C(=O)N1 (stereo not drawn) [GT-06266, 2-(2,6-dioxopiperidin-3-yl)-5-((4-(isoquinolin-5-yl)piperidin-1-yl)methyl)isoindoline-1,3-dione] |  |  |  |  |  |  | B (80%< substrate protein remaining %≤ 100%) | B (80%< substrate protein remaining %≤ 100%) | A (0% ≤ substrate protein remaining % ≤ 80%) | B (80%< substrate protein remaining %≤ 100%) | B (80%< substrate protein remaining %≤ 100%) | B (80%< substrate protein remaining %≤ 100%)
